Patent US12258338B2, “Modulators of the integrated stress response pathway” (EVOTEC INTERNATIONAL GMBH, priority 2019, dated 2025)
≈ marks a conversion by molar mass, not a printed value. Like-named read-outs stand apart in the source and are kept apart here.

Legend:
[1] = test system: ATF4; assay: HEK-ATF4 High Content Imaging assay (prevention of Tunicamycin induced ISR; ATF4 signal ratio between nucleus and cytoplasm); format: cell-based; settings: Homo sapiens; Wild-type HEK293 cells, Tunicamycin induced ISR, 6 h; read-out: IIEK-ATF4 Activity
Summary of the method: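 Wild-type HEK293 cells in 0.3% FBS medium were co-treated with compounds and Tunicamycin (3.3 μM in prediluted medium, 11-fold over final) for 6 h at 37 °C. Fixed cells were immunostained for ATF4 with Hoechst nuclei; imaging gave nuclear/cytoplasmic ATF4 ratio, with nuclei counts as toxicity control.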

[2] = Thermodynamic (Equilibrium) solubility in selected buffer; format: physicochemical; settings: Table 25; for solubility: aqueous buffer, thermodynamic from solid
Description: Protocol—Thermodynamic (Equilibrium) Solubility in Selected Buffer
Example compounds were tested in the Thermodynamic (Equilibrium) solubility in selected buffer assay. The test compound, in powder form, was weighted into a 4 mL glass vial and a calculated volume of selected medium was added to reach the target concentration of the solubility test (1 mg/mL). The solution was then stirred overnight at r.t. protected from the light. The solution was filtered through a 0.45 μm PTFE membrane at ambient temperature. An aliquot of the resulting filtrate was quantified using UPLC-UV method described below against a reference solution of the test compound, 0.8 mg/mL in DMSO. Media compositions: Phosphate buffer 50 mM (pH=2.0) […] of NaH2PO4, H2O in 200 mL of ultrapurified water adjusted at pH 2 with phosphoric acid 85%; Acetate buffer 50 mM (pH=5.5) 820 mg of anhydrous sodium acetate in 200 mL of ultrapurified water adjusted at pH 5.5 with acetic acid 99.8%; Phosphate buffer 50 mM (pH=7.4) 40.5 mL of Na2HPO4 0.1 M solution+9.5 mL of NaH2PO4 0.1 M solution. Analytical conditions: UPLC-UV-MS analyses were performed with a Waters Acquity UPLC HClass-PDA-QDa system using a reverse phase Acquity BEH C18 column (2.1 mm×50 mm, 1.7 μm; temperature: 40° C.) and a gradient of 10-95% B (A=0.1% formic acid in H2O; B=0.05% formic acid in ACN) over 1.8 min then 100% B for 0.8 min, with an injection volume of 0.4 μL at flow rate of 0.65 mL/min. UV chromatograms were recorded at 220 nm, 254 nm and 290 nm using a photo diode array detector. Mass spectra were recorded in the 150 to 900 M/Z range at a sampling rate of 10 scans per sec using a QDa detector. Data were integrated using Empower®3 software. Data Analysis: Equilibrium solubility of the test compound in the selected medium was calculated through the ratio of the surface area of the UV chromatographic peak of the compound in the filtrate to the surface of the UV chromatographic peak of the compound in the reference solution.

[3] = target: T1, human ERG potassium channel (hERG) (Homo sapiens, UniProt Q12809); assay: hERG channel tail current recording using in vitro Rapid ICE (automated patch-clamp, QPatch HTX); format: cell-based; settings: Table 26
T1 construct: expressed in transfected cells; host or cells: HEK293, stably transfected, tetracycline-inducible promoter
Summary of the method: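 Automated patch clamp on tetracycline-induced HEK293 hERG cells; pulse −80 to −50 mV 200 ms, +20 mV 4.8 s, −50 mV 5 s tail, extracellular pH 7.4. Compound at 0.3, 3, 30 μM (0.3% DMSO), 5 min exposure; tail current versus vehicle gives % inhibition and estimated IC50.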

[4] = acetate buffer 50 mM, pH 5.5, read-out: Solubility (μg/mL) pH 5.5
[5] = phosphate buffer 50 mM, pH 2.0, read-out: Solubility (μg/mL) pH 2.0
[6] = phosphate buffer 50 mM, pH 7.4, read-out: Solubility (μg/mL) pH 7.4

T1 sequence (Q12809 whole entry): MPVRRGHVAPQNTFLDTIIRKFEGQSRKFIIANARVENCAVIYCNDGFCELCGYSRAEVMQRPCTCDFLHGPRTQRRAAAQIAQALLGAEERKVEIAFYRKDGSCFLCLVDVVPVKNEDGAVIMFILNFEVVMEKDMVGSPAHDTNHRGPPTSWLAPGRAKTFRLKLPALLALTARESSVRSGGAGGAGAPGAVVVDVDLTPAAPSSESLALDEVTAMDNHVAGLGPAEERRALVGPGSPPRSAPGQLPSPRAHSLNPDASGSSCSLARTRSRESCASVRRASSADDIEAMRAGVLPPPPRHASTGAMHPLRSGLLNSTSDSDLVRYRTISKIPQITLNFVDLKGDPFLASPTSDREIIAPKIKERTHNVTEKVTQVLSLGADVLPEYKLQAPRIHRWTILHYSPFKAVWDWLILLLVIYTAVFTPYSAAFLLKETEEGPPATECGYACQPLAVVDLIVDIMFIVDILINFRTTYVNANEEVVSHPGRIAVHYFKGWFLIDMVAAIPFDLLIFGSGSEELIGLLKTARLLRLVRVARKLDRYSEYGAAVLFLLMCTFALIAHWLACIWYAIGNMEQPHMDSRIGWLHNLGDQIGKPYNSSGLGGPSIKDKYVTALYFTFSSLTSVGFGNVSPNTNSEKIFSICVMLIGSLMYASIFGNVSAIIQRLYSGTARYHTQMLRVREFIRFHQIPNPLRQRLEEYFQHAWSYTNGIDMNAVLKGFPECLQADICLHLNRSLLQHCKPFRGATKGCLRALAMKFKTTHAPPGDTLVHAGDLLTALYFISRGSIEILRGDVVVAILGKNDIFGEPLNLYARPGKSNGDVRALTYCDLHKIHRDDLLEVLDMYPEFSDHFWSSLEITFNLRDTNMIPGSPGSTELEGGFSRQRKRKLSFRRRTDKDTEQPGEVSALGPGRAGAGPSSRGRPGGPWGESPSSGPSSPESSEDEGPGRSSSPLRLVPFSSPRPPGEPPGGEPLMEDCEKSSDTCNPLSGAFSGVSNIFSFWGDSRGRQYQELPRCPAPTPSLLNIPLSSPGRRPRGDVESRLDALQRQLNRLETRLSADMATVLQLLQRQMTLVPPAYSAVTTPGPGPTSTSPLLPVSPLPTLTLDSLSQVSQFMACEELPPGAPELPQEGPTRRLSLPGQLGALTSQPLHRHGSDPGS

Structure (SMILES)	IC50 [1] [nM]	solubility [2, 4] [µg/mL]	solubility [2, 5] [µg/mL]	solubility [2, 6] [µg/mL]	IC50 [3] [nM]	Solubility (μg/mL) pH 2.0 ([2]; pH 2.0)
O=C(COc1ccc(Cl)c(F)c1)N[C@H]1CC[C@H](c2nnc(N3CC[C@H](OC(F)(F)F)C3)o2)NC1 (single isomer, unassigned) [Example 110]	1 to 500	256 (≈ 504 µM)	982 (≈ 1930 µM)	132 (≈ 260 µM)	> 5000	–
O=C(COc1ccc(Cl)c(F)c1)N[C@H]1CC[C@H](c2nnc(N3CC[C@@H](OC(F)(F)F)C3)o2)NC1 (single isomer, unassigned) [Example 111]	1 to 500	9 (≈ 17.7 µM)	911 (≈ 1790 µM)	6 (≈ 11.8 µM)	1000 to 5000	–
O=C(COc1ccc(Cl)c(C(F)F)c1)N[C@H]1CC[C@H](c2nnc(OCCOC(F)(F)F)o2)NC1 [Example 11, 2-[4-chloro-3-(difluoromethyl)phenoxy]-N-[(3S,6R)-6-{5-[2-(trifluoromethoxy)ethoxy]-1,3,4-oxadiazol-2-yl}piperidin-3-yl]acetamide]	1 to 500	60 (≈ 117 µM)	617 (≈ 1200 µM)	42 (≈ 81.6 µM)	> 5000	–
Cc1cc(OCC(=O)N[C@H]2CC[C@H](c3nnc(OCCOC(F)(F)F)o3)NC2)ccc1Cl [Example 12, 2-(4-chloro-3-methylphenoxy)-N-[(3S,6R)-6-{5-[2-(trifluoromethoxy)ethoxy]-1,3,4-oxadiazol-2-yl}piperidin-3-yl]acetamide]	1 to 500	113 (≈ 236 µM)	651 (≈ 1360 µM)	105 (≈ 219 µM)	> 5000	–
Cc1ccc(OCC(=O)N[C@H]2CC[C@H](c3nnc(OCCOC(F)(F)F)o3)NC2)cc1C [Example 13, 2-(3,4-dimethylphenoxy)-N-[(3S,6R)-6-{5-[2-(trifluoromethoxy)ethoxy]-1,3,4-oxadiazol-2-yl}piperidin-3-yl]acetamide]	1 to 500	318 (≈ 694 µM)	661 (≈ 1440 µM)	240 (≈ 524 µM)	> 5000	–
O=C(COc1ccc(C(F)(F)F)nc1)N[C@H]1CC[C@H](c2nnc(OCCOC(F)(F)F)o2)NC1 [Example 14, N-[(3S,6R)-6-{5-[2-(trifluoromethoxy)ethoxy]-1,3,4-oxadiazol-2-yl}piperidin-3-yl]-2-{[6-(trifluoromethyl)pyridin-3-yl]oxy}acetamide]	500 to 2000	814 (≈ 1630 µM)	616 (≈ 1230 µM)	606 (≈ 1210 µM)	> 5000	–
O=C(COc1ccc(Cl)c(F)c1)N[C@H]1CC[C@H](c2nnc(-c3ccc(C(F)(F)F)nc3)o2)NC1 [Example 52, 2-(4-chloro-3-fluorophenoxy)-N-[(3S,6R)-6-{5-[6-(trifluoromethyl)pyridin-3-yl]-1,3,4-oxadiazol-2-yl}piperidin-3-yl]acetamide]	1 to 500	9 (≈ 18 µM)	839 (≈ 1680 µM)	7 (≈ 14 µM)	1 to 1000	–
O=C(COc1ccc(Cl)c(F)c1)N[C@H]1CC[C@H](c2nnc(C3CN(CC(F)(F)F)C3)o2)NC1 [Example 57, 2-(4-chloro-3-fluorophenoxy)-N-[(3S,6R)-6-{5-[1-(2,2,2-trifluoroethyl)azetidin-3-yl]-1,3,4-oxadiazol-2-yl}piperidin-3-yl]acetamide]	500 to 2000	663 (≈ 1350 µM)	–	501 (≈ 1020 µM)	> 5000	quant.^#
O=C(COc1ccc(Cl)c(Cl)c1)N[C@H]1CC[C@H](c2nnc([C@H]3C[C@@H](OC(F)F)C3)o2)NC1 [Example 60, 2-(3,4-dichlorophenoxy)-N-[(3S,6R)-6-(5-[(1s,3s)-3-(difluoromethoxy)cyclobutyl]-1,3,4-oxadiazol-2-yl}piperidin-3-yl]acetamide]	1 to 500	47 (≈ 95.7 µM)	886 (≈ 1800 µM)	91 (≈ 185 µM)	1 to 1000	–
O=C(COc1ccc(Cl)c(F)c1)N[C@H]1CC[C@H](c2nnc(OC3CCC(F)(F)C3)o2)NC1 (stereo partly drawn) [Example 68, 2-(4-chloro-3-fluorophenoxy)-N-[(3S,6R)-6-{5-[(3,3-difluorocyclopentyl)oxy]-1,3,4-oxadiazol-2-yl}piperidin-3-yl]acetamide]	2000 to 15000	168 (≈ 354 µM)	909 (≈ 1910 µM)	102 (≈ 215 µM)	1000 to 5000	–
O=C(COc1ccc(Cl)c(F)c1)N[C@H]1CC[C@H](c2nnc(OCCOC(F)F)o2)NC1 [Example 75, 2-(4-chloro-3-fluorophenoxy)-N-[(3S,6R)-6-{5-[2-(difluoromethoxy)ethoxy]-1,3,4-oxadiazol-2-yl}piperidin-3-yl]acetamide]	1 to 500	26 (≈ 55.9 µM)	713 (≈ 1530 µM)	22 (≈ 47.3 µM)	1000 to 5000	–
O=C(COc1ccc(Cl)c(F)c1)N[C@H]1CC[C@H](c2nnc(OCCOC(F)(F)F)o2)NC1 [Example 77, 2-(4-chloro-3-fluorophenoxy)-N-[(3S,6R)-6-{5-[2-(trifluoromethoxy)ethoxy]-1,3,4-oxadiazol-2-yl}piperidin-3-yl]acetamide]	1 to 500	98 (≈ 203 µM)	810 (≈ 1680 µM)	76 (≈ 157 µM)	1000 to 5000	–
CC(F)(F)CCCOc1nnc([C@H]2CC[C@H](NC(=O)COc3ccc(Cl)c(F)c3)CN2)o1 [Example 84, 2-(4-chloro-3-fluorophenoxy)-N-[(3S,6R)-6-{5-[(4,4-difluoropentyl)oxy]-1,3,4-oxadiazol-2-yl}piperidin-3-yl]acetamide]	1 to 500	93 (≈ 195 µM)	717 (≈ 1500 µM)	62 (≈ 130 µM)	1000 to 5000	–
O=C(COc1ccc(Cl)c(Cl)c1)N[C@H]1CC[C@H](c2nnc(OCCOC(F)(F)F)o2)NC1 [Example 85, 2-(3,4-dichlorophenoxy)-N-[(3S,6R)-6-{5-[2-(trifluoromethoxy)ethoxy]-1,3,4-oxadiazol-2-yl}piperidin-3-yl]acetamide]	1 to 500	9 (≈ 18 µM)	918 (≈ 1840 µM)	6 (≈ 12 µM)	1000 to 5000	–
O=C(COc1ccc(Cl)c(F)c1)N[C@H]1CC[C@H](c2nnc(N3CC(C(F)(F)F)C3)o2)NC1 [Example 90, 2-(4-chloro-3-fluorophenoxy)-N-[(3S,6R)-6-{5-[3-(trifluoromethyl)azetidin-1-yl]-1,3,4-oxadiazol-2-yl}piperidin-3-yl]acetamide]	500 to 2000	294 (≈ 615 µM)	–	173 (≈ 362 µM)	> 5000	quant.^#
O=C(COc1ccc(Cl)c(F)c1)N[C@H]1CC[C@H](c2nnc(N3CC(OC4CC4)C3)o2)NC1 [Example 95, 2-(4-chloro-3-fluorophenoxy)-N-[(3S,6R)-6-[5-(3-cyclopropoxyazetidin-1-yl)-1,3,4-oxadiazol-2-yl]piperidin-3-yl]acetamide]	1 to 500	378 (≈ 811 µM)	970 (≈ 2080 µM)	230 (≈ 494 µM)	1000 to 5000	–
O=C(COc1ccc(Cl)c(F)c1)N[C@H]1CC[C@H](c2noc([C@H]3C[C@@H](OC(F)(F)F)C3)n2)NC1 [Example 98, 2-(4-chloro-3-fluorophenoxy)-N-[(3S,6R)-6-{5-[(1s,3s)-3-(trifluoromethoxy)cyclobutyl]-1,2,4-oxadiazol-3-yl}piperidin-3-yl]acetamide]	1 to 500	61 (≈ 124 µM)	–	17 (≈ 34.5 µM)	1000 to 5000	quant.^#
O=C(COc1ccc(C(F)(F)F)cc1)N[C@H]1CC[C@H](c2nnc(OCCOC(F)(F)F)o2)NC1 [Example 112, N-[(3S,6R)-6-{5-[2-(trifluoromethoxy)ethoxy]-1,3,4-oxadiazol-2-yl}piperidin-3-yl]-2-[4-(trifluoromethyl)phenoxy]acetamide]	1 to 500	97 (≈ 195 µM)	812 (≈ 1630 µM)	67 (≈ 134 µM)	> 5000	–
